# Assay results: patent publication EP0256909B1, “N,N-bis-(4-fluorophenyl) carbamoyl acetohydroxamic acid and pharmaceutical composition containing it” (priority 1986, dated 1988)
# Key:
# [1] = test system: homme; experiment: Use as stimulant antidepressant in man; type: in vivo; settings: 2 to 3 tablets of 150 mg per day, oral route
# [2] = in vivo; settings: mouse, in vivo, ip; for LD50 at 48 h: 48 h after administration; for LD50 at 72 h: 72 h after administration; for LD50 at 24 h: dose létale 50% (DL50), 24 h after administration; for selectivity ratio: rapport, LD50 ratio isolated/grouped mice (formula not readable)
# Procedure: (§1) Le CRL 41131, en suspension dans une solution de gomme arabique à 5%, a été administré par voie intrapéritonéale sous un volume de 20 ml/kg chez la souris (mâle, NMRI, Evic Ceba) et de 5 ml/kg chez le rat (mâle, CD1, Sprague Dawley, Charles River).
# Aussitôt après l'administration de CRL 41131, les souris groupées par lots de 10 sont placées dans des boîtes en Plexiglass (20 x 10 x 10 cm).
# On note le nombre d'animaux morts, toutes les heures pendant 4 h et après 24, 48 et 72 h.
# La toxicité du CRL 41131 est déterminée dans les mêmes conditions sur des lots de souris placées à raison d'une par boîte.
# [3] = test system: rat; experiment: Search for stereotyped movements; type: in vivo; settings: for mouvements stéréotypés (cotes): 22 h 30 min after administration, scored 0 to 3
# Procedure: as §1
# [4] = test system: souris; experiment: Global behaviour and reactivities, mouse; type: in vivo
# Procedure: Des lots de 3 animaux sont observés avant, puis 15 min, 30 min, 1 h, 2 h, 3 h et 24 h après l'administration de CRL 41131.
# [5] = test system: souris; settings: in vivo, ip
# Procedure: as §1
# Le test est pratiqué sur des lots de 10 souris, 30 min après l'administration de CRL 41131.
smiles,measurement,setting,value
"O=C(CC(=O)N(c1ccc(F)cc1)c1ccc(F)cc1)NO [CRL 41131, acide N,N-bis-(4-fluorophényl) carbamoylacétohydroxamique]",résultats comme antidépresseur stimulant chez l'homme,[1],bons résultats comme antidépresseur stimulant
same,LD50 at 48 h,"[2]; DL50, grouped mice",~480 mg/kg
same,LD50 at 72 h,"[2]; DL50, grouped mice",~370 mg/kg
same,LD50 at 48 h,"[2]; DL50, isolated mice",~300 mg/kg
same,LD50 at 72 h,"[2]; DL50, isolated mice",~1100 mg/kg
same,LD50 at 24 h,[2]; grouped mice,~700 mg/kg
same,LD50 at 24 h,[2]; isolated mice,~500 mg/kg
same,selectivity ratio,[2]; 48 h,2.7
same,selectivity ratio,[2]; 72 h,2.97
same,mouvements stéréotypés (cotes),[3]; 64 mg/kg i.p.,1
same,mouvements stéréotypés (cotes),[3]; 128 mg/kg i.p.,2
same,mouvements stéréotypés (cotes),[3]; 256 mg/kg i.p.,3
same,mouvements stéréotypés persistant pendant,[3]; 128 et 256 mg/kg i.p.,> 30 h
same,mouvements stéréotypés,"[3]; from the lowest dose used, 64 mg/kg i.p.",provoque l'apparition de mouvements stéréotypés
same,Comportement global: excitation,[4]; 128 mg/kg i.p.,excitation (1/3) pendant 1 h
same,Comportement global: excitation,[4]; 512 mg/kg i.p.,"excitation (1/3 pendant 1 h, 2/3 entre 2 et 3 h, et 3/3 à 24 h)"
same,Comportement global et réactivités à 24 h,"[4]; 512 mg/kg i.p., 24 h","mouvements d'apparence stéréotypée, augmentation de la réaction de peur et de la réactivité au toucher à 24 h"
same,"Comportement, réactivités, variations du diamètre pupillaire et de la température",[4]; 8 et 32 mg/kg i.p.,comparables à ceux du lot témoin
same,incapacité motrice,[5],ne provoque pas l'incapacité motrice majeure
